Source: publication PMC5601486, “Identification of 4-phenylquinolin-2(1H)-one as a specific allosteric inhibitor of Akt” (Scientific Reports, 2017)
Read-outs that look alike come from different tables or passages of the source.

What was measured:
mTORC2 = tested on: mTORC2; design: method as in PMID 22614243; conditions: cited from earlier work
Neuro 2A cells = assay: MTS cell proliferation assay; type: cell-based, Mouse; conditions: 1 day
Procedure: (§1) Neuro 2A cells or NIH/3T3 cells (ATCC) were seeded at various confluency in a 96-well plate in 100 µL DMEM containing 5% FBS or 10% FBS with 1% penicillin streptomucin, respectively, at 37 °C in a 5% CO2 and 95% humidity incubator for 18 hr. To each well 1 µL inhibitor with various concentrations or DMSO was added. The final concentrations of the tested inhibitors were 0, 5, 10, 20, 40 and 80 µM for G7 and LY, and 0, 5, 10, 20, 40 and 80 nM for Torin1, based on their respective IC50 values (~µM for G7 and LY and ~ nM for Torin 1). After 24 hr, 20 µL of CellTiter 96® AQueous One Solution Reagent (Promega) were added. The plate was placed in the incubator for 2 h and absorbance at 490 nm was measured with a Synergy HT Microplate Reader (Bio-Tek).

Akt S473 phosphorylation = assay: pS473-Akt HTRF assay; type: cell-based, Mouse; conditions: Mus musculus, N2a, Neuro 2A cells
Procedure: Neuro 2A cells were seeded (4,000 cells/well) in 4 µL of DMEM with 0.5% FBS and 1x Penicillin/Streptomycin in white solid bottom tissue-culture treated 1536-well plates (Greiner, 789173-F) with MultiDrop Combi Dispenser (Thermo Scientific). The cells were incubated for 24 h at 37 °C, 5% CO2, 95% humidity. Twenty-three nL of tested compounds were transferred to each well with an automated pin-tool station (Kalypsys). Following incubation for 15 min at 37 °C, 0.5 µL IGF (500 ng/mL of final concentration) was added and incubated for additional 40 min at 37 °C. After the addition of 1.5 µL 4x lysis buffer and 15-min incubation at room temperature (25 °C), 2 µL of HTRF® conjugated antibodies (fluorophore d2 conjugated anti-Akt monoclonal antibody and Europium^3+ cryptate-labeled anti-pS473-Akt monoclonal antibody, obtained from CisBio, 1:80 dilution) were added with BioRAPTR FRD™ (Beckman Coulter). The plates were incubated at room temperature for 20 h. The signal was measured by EnVision Multilabel Plate Reader (PerkinElmer) with excitation at 330 nm, emission at 620 nm (donor) and 665 nm (acceptor). Results were calculated and analyzed in a format of the ratio 665 nm/620 nm multiplied by 10^4.
Relative activity was calculated by normalizing each HTRF signal from each sample well to the mean HTRF signal from the DMSO-only control wells.
The Library of Pharmacologically Active Compounds (LOPAC, 1280 compounds) and the Molecular Library Small Molecular Repository Library (MLSMR, 373,868 compounds) were obtained from Sigma-Aldrich.
Quantitative HTS (qHTS) and curve response class classification
The qHTS screen was performed as described previously1. Each compound was titrated in seven concentrations. The final concentrations of the compounds assayed ranged from 4.9 nM to 76.6 µM. The curve response classifications (CRC), which can be used to depict potency, efficacy and reliability of the data, and to estimate an IC50 value, were determined by a customized software2. […]
Sigma-Aldrich) and the basal response (0% inhibition) was set to the DMSO control.
Efficacy of a compound refers to the highest response normalized to the maximal response of LY. The CRCs were grouped into 4 categories. Class 1 are well-fit and have both upper and lower asymptotes with efficacy greater than 30%
(Class1.1, >80% efficacy; Class 1.2; 30-80% efficacy). Class 2 are incomplete with only one asy mptote (Class 2.1, > 80% efficacy; Class 2.2, 30-80% % efficacy). Class 3 display activity only at the highest concentrations and efficacy >30%. Class 4 are with low efficacy (<30%) or no response and considered inactive3.

LNCaP cells = assay: MTS cell proliferation assay; type: cell-based; conditions: 1 day, 40% confluent
Procedure: as §1
Fig. S8. Effect of G7 on proliferation of LNCaP cells. Cells that were 40% confluent in RPMI-1640 medium containing 10% FBS were treated with inhibitors for 1 day and subjected to MTS assays. *, µM for both G7 and LY and nM for Torin1. Data represent means ± SEM (n=3). G7, 4-phenylquinolin-2(1H)-one, LY, LY294002.

Akt = target: T1, Akt (Mus musculus, UniProt P31750); assay: Akt activity assay (immunoprecipitated Akt, K-Lisa); type: cell-based; conditions: LY at 125 µM
T1 construct: subjected to immunoprecipitation using protein G-plus and anti-AKT PH domain (Millipore); endogenous in cells; host or cells: Neuro 2A (mouse neuroblastoma), IGF-stimulated
Procedure: After overnight starvation by incubating with serum-free DMEM, Neuro 2A cells were treated with compound G7 at various concentrations for 30 min at room temperature followed by stimulation with IGF (final concentration of 100 ng/mL) for 30 min. Cells were lysed with lysis buffer containing 1% Triton X-100 and protease/phosphatase inhibitors (Cell Signaling Technology) and subjected to immunoprecipitation using protein G-plus and anti-AKT PH domain (Millipore). The activity of the immunopurified Akt was evaluated using a K-Lisa Akt activity kit (Millipore) in accordance with manufacturer’s instructions. The activity was normalized to Akt level in the immunoprecipitates determined by quantitative western blot analysis.

T1 sequence (P31750 whole entry, the tested form may be a part): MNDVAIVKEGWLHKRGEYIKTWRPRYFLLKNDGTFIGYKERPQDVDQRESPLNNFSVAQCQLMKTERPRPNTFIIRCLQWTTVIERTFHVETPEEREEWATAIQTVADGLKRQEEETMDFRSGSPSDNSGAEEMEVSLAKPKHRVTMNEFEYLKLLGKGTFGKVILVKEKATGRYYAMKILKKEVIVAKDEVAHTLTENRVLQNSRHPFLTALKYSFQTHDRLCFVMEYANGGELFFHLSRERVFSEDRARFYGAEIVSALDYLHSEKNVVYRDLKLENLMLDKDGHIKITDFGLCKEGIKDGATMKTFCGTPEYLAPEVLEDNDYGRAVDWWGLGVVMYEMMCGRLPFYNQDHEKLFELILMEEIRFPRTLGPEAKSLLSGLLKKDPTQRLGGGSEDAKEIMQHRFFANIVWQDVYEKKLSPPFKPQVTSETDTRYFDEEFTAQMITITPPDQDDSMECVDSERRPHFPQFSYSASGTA

## NC1(c2ccc(-c3nc4ccn5c(=O)[nH]nc5c4cc3-c3ccccc3)cc2)CCC1 [MK-2206]
mTORC2
  effect on mTORC2 activity: decrease mTORC2 activity

## CCC(=O)N1CCN(c2ccc(-n3c(=O)ccc4cnc5ccc(-c6cnc7ccccc7c6)cc5c43)cc2C(F)(F)F)CC1 [Torin 1, 1-(4-(4-Propionylpiperazin-1-yl)-3-(trifluoromethyl)phenyl)-9-(quinolin-3-yl)benzo[h][1,6]naphthyridin-2(1H)-one]
Neuro 2A cells
  proliferation of Neuro 2A cells: inhibited the proliferation
Akt S473 phosphorylation; 384-well format, read-out: IC50
  IC50: 0.02 µM
Akt S473 phosphorylation; 1536-well, inhibitor 15 min before IGF, read-out: apparent IC50
  IC50: ~0.02 µM
LNCaP cells
  proliferation of LNCaP prostate cancer cells: inhibited the proliferation

## O=c1cc(N2CCOCC2)oc2c(-c3ccccc3)cccc12 [LY294002, 2-(4-morpholinyl)-8-phenyl-4H-1-benzopyran-4-one]
Neuro 2A cells
  proliferation of Neuro 2A cells: inhibited the proliferation
Akt
  inhibition at 125 µM: ~90%
Akt S473 phosphorylation; inhibitor 15 min before IGF, read-out: IC50
  IC50: 25 µM
LNCaP cells
  proliferation of LNCaP prostate cancer cells: inhibited the proliferation
